Laboratory results reported in patent US9474790B2, “Stable, protracted GLP-1/glucagon receptor co-agonists for medical use” (Novo Nordisk A/S, priority 2013, dated 2016).
Numbered stars: 1 amine (or outer) side, 2 acyl side, 3 side chain; on linkers, the order of the positions; unused ones are H or OH. Bridge positions count the residues as written; N and C are the ends. Square brackets hold non-standard residues; d marks the D form. Side chains are listed from the residue outwards. Peptide text beside a SMILES is read from it. I, II: the chains in the order shown. * marks the point of attachment. C18 diacid = O=C(O)CCCCCCCCCCCCCCCCC(=O)*; γGlu = O=C(O)[C@H](CCC(=O)[*:2])N[*:1]; Ac4c = NC1(C(=O)O)CCC1; AEEA = NCCOCCOCC(=O)O; Aib = CC(C)(N)C(=O)O

Target: T1, human GLP-1 receptor (Homo sapiens, UniProt P43220)
T1 construct: expressed in transfected cells; host or cells: BHK cells (parent BHKTS13), clone FCW467-12A/KZ10-1, with CRE luciferase
Assay: GLP-1 receptor potency, CRE luciferase reporter gene assay in BHK cells
Format: cell-based
Conditions: BHK cells expressing human GLP-1 receptor, read-out: EC50 GLP-1R
Summary of the method: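 BHK cells stably expressing human GLP-1 receptor with CRE-luciferase reporter, 5×10EE3 cells/well in phenol red-free DMEM with 10 mM Hepes, 2% ovalbumin, 0.2% Pluronic F-68. Compounds at final 1×10EE-6 to 1×10EE-13 M, 3 h at 37° C; steadylite luminescence; EC50 by four-parameter fit, in pM.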

T1 sequence (P43220 24-463): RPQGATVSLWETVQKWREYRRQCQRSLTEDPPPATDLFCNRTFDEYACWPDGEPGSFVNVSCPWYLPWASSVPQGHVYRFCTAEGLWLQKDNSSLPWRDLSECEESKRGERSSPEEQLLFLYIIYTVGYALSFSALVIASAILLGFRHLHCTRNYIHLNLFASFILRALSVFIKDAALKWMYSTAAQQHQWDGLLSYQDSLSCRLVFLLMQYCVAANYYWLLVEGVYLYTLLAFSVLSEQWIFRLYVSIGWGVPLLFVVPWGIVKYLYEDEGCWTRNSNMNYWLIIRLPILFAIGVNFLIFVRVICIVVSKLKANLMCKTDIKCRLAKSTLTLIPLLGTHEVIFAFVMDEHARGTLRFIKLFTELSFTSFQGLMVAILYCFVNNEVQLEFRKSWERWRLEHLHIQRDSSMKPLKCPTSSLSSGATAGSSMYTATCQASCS

Structure (SMILES) | EC50 [pM]
CC(C)C[C@H](NC(=O)[C@H](CC(C)C)NC(=O)[C@H](Cc1c[nH]c2ccccc12)NC(=O)[C@H](CCC(N)=O)NC(=O)[C@@H](NC(=O)[C@H](Cc1ccccc1)NC(=O)[C@H](CCC(=O)O)NC(=O)[C@H](CCCNC(=N)N)NC(=O)[C@H](C)NC(=O)[C@H](CCCNC(=N)N)NC(=O)[C@H](CCCNC(=N)N)NC(=O)[C@H](CO)NC(=O)[C@H](CC(=O)O)NC(=O)[C@H](CC(C)C)NC(=O)[C@H](Cc1ccc(O)cc1)NC(=O)[C@H](CCCCN)NC(=O)[C@H](CO)NC(=O)[C@H](CC(C)C)NC(=O)[C@H](CC(=O)O)NC(=O)[C@H](CO)NC(=O)[C@@H](NC(=O)[C@H](Cc1ccccc1)NC(=O)[C@@H](NC(=O)CNC(=O)[C@H](CCC(N)=O)NC(=O)C(C)(C)NC(=O)[C@@H](N)Cc1c[nH]cn1)[C@@H](C)O)[C@@H](C)O)C(C)C)C(=O)N[C@@H](CC(N)=O)C(=O)N[C@@H](CCCCNC(=O)CC[C@H](NC(=O)CC[C@H](NC(=O)COCCOCCNC(=O)COCCOCCNC(=O)CC[C@H](NC(=O)CCCCCCCCCCCCCCCCC(=O)O)C(=O)O)C(=O)O)C(=O)O)C(N)=O [Example 12, N^ε29-[(4S)-4-carboxy-4-[[(4S)-4-carboxy-4-[[2-[2-[2-[[2-[2-[2-[[(4S)-4-carboxy-4-(17-carboxyheptadecanoylamino)butanoyl]amino]ethoxy]ethoxy]acetyl]amino]ethoxy]ethoxy]acetyl]amino]butanoyl]amino]butanoyl]-[Aib2,Leu10,Arg20,Glu21,Leu27,Lys29]-Glucagon amide] (H-H[Aib]QGTFTSDLSKYLDSRRAREFVQWLLNK([γGlu-γGlu-AEEA-AEEA-γGlu-C18 diacid])-NH2) | 14.7
CC(C)C[C@H](NC(=O)[C@H](CC(C)C)NC(=O)[C@H](Cc1c[nH]c2ccccc12)NC(=O)[C@H](CCC(N)=O)NC(=O)[C@@H](NC(=O)[C@H](Cc1ccccc1)NC(=O)[C@H](CCC(=O)O)NC(=O)[C@H](CCCNC(=N)N)NC(=O)[C@H](C)NC(=O)[C@H](CCCNC(=N)N)NC(=O)[C@H](CCCNC(=N)N)NC(=O)[C@H](CO)NC(=O)[C@H](CCC(=O)O)NC(=O)[C@H](CC(C)C)NC(=O)[C@H](Cc1ccc(O)cc1)NC(=O)[C@H](CCCCN)NC(=O)[C@H](CO)NC(=O)[C@H](CC(C)C)NC(=O)[C@H](CC(=O)O)NC(=O)[C@H](CO)NC(=O)[C@@H](NC(=O)[C@H](Cc1ccccc1)NC(=O)[C@@H](NC(=O)CNC(=O)[C@H](CCC(N)=O)NC(=O)C(C)(C)NC(=O)[C@@H](N)Cc1c[nH]cn1)[C@@H](C)O)[C@@H](C)O)C(C)C)C(=O)N[C@@H](CC(N)=O)C(=O)N[C@@H](CCCCNC(=O)CC[C@H](NC(=O)COCCOCCNC(=O)COCCOCCNC(=O)CC[C@H](NC(=O)CC[C@H](NC(=O)CCCCCCCCCCCCCCCCC(=O)O)C(=O)O)C(=O)O)C(=O)O)C(N)=O [Example 21, N^ε29-[(4S)-4-carboxy-4-[[2-[2-[2-[[2-[2-[2-[[(4S)-4-carboxy-4-[[(4S)-4-carboxy-4-(17-carboxyheptadecanoylamino)butanoyl]amino]butanoyl]amino]ethoxy]ethoxy]acetyl]amino]ethoxy]ethoxy]acetyl]amino]butanoyl]-[Aib2,Leu10,Glu15,Arg20,Glu21,Leu27,Lys29]-Glucagon amide] (H-H[Aib]QGTFTSDLSKYLESRRAREFVQWLLNK([γGlu-AEEA-AEEA-γGlu-γGlu-C18 diacid])-NH2; N-terminus assumed) | 2.7
CC(C)C[C@H](NC(=O)[C@H](Cc1ccc(O)cc1)NC(=O)[C@H](CCCCN)NC(=O)[C@H](CO)NC(=O)[C@H](CC(C)C)NC(=O)[C@H](CC(=O)O)NC(=O)[C@H](CO)NC(=O)[C@@H](NC(=O)[C@H](Cc1ccccc1)NC(=O)[C@@H](NC(=O)CNC(=O)[C@H](CCC(N)=O)NC(=O)C(C)(C)NC(=O)[C@@H](N)Cc1c[nH]cn1)[C@@H](C)O)[C@@H](C)O)C(=O)N[C@@H](CCC(=O)O)C(=O)N[C@@H](CO)C(=O)N[C@@H](CCCNC(=N)N)C(=O)N[C@@H](CCCNC(=N)N)C(=O)N[C@@H](C)C(=O)N[C@@H](CCCNC(=N)N)C(=O)N[C@@H](CCC(=O)O)C(=O)N[C@@H](Cc1ccccc1)C(=O)N[C@H](C(=O)N[C@@H](CCC(N)=O)C(=O)N[C@@H](Cc1c[nH]c2ccccc12)C(=O)N[C@@H](CC(C)C)C(=O)N[C@@H](CC(C)C)C(=O)N[C@@H](CCCCNC(=O)CC[C@H](NC(=O)CC[C@H](NC(=O)COCCOCCNC(=O)COCCOCCNC(=O)CC[C@H](NC(=O)CCCCCCCCCCCCCCCCC(=O)O)C(=O)O)C(=O)O)C(=O)O)C(=O)N[C@H](C(N)=O)[C@@H](C)O)C(C)C [Example 23, N^ε28-[(4S)-4-carboxy-4-[[(4S)-4-carboxy-4-[[2-[2-[2-[[2-[2-[2-[[(4S)-4-carboxy-4-(17-carboxyheptadecanoylamino)butanoyl]amino]ethoxy]ethoxy]acetyl]amino]ethoxy]ethoxy]acetyl]amino]butanoyl]amino]butanoyl]-[Aib2,Leu10,Glu15,Arg20,Glu21,Leu27,Lys28]-Glucagon amide] (H-H[Aib]QGTFTSDLSKYLESRRAREFVQWLLK([γGlu-γGlu-AEEA-AEEA-γGlu-C18 diacid])T-NH2; N-terminus assumed) | 22.1
CC(C)C[C@H](NC(=O)[C@H](Cc1ccc(O)cc1)NC(=O)[C@H](CCCCN)NC(=O)[C@H](CO)NC(=O)[C@H](CC(C)C)NC(=O)[C@H](CC(=O)O)NC(=O)[C@H](CO)NC(=O)[C@@H](NC(=O)[C@H](Cc1ccccc1)NC(=O)[C@@H](NC(=O)CNC(=O)[C@H](Cc1c[nH]cn1)NC(=O)C(C)(C)NC(=O)[C@@H](N)Cc1c[nH]cn1)[C@@H](C)O)[C@@H](C)O)C(=O)N[C@@H](CCC(=O)O)C(=O)N[C@@H](CO)C(=O)N[C@@H](CCCCN)C(=O)N[C@@H](CCCNC(=N)N)C(=O)N[C@@H](C)C(=O)N[C@@H](CCCNC(=N)N)C(=O)N[C@@H](CCC(=O)O)C(=O)N[C@@H](Cc1ccccc1)C(=O)N[C@H](C(=O)N[C@@H](CCC(N)=O)C(=O)N[C@@H](Cc1c[nH]c2ccccc12)C(=O)N[C@@H](CC(C)C)C(=O)N[C@@H](CC(C)C)C(=O)N[C@@H](CCCCNC(=O)CC[C@H](NC(=O)CC[C@H](NC(=O)COCCOCCNC(=O)COCCOCCNC(=O)CC[C@H](NC(=O)CCCCCCCCCCCCCCCCC(=O)O)C(=O)O)C(=O)O)C(=O)O)C(=O)N[C@H](C(N)=O)[C@@H](C)O)C(C)C [Example 27, N^ε28-[(4S)-4-carboxy-4-[[(4S)-4-carboxy-4-[[2-[2-[2-[[2-[2-[2-[[(4S)-4-carboxy-4-(17-carboxyheptadecanoylamino)butanoyl]amino]ethoxy]ethoxy]acetyl]amino]ethoxy]ethoxy]acetyl]amino]butanoyl]amino]butanoyl]-[Aib2,His3,Leu10,Glu15,Lys17,Arg20,Glu21,Leu27, Lys28]-Glucagon amide] (H-H[Aib]HGTFTSDLSKYLESKRAREFVQWLLK([γGlu-γGlu-AEEA-AEEA-γGlu-C18 diacid])T-NH2; N-terminus assumed) | 4.1
CC(C)C[C@H](NC(=O)[C@H](Cc1ccc(O)cc1)NC(=O)[C@H](CCCCN)NC(=O)[C@H](CO)NC(=O)[C@H](CC(C)C)NC(=O)[C@H](CC(=O)O)NC(=O)[C@H](CO)NC(=O)[C@@H](NC(=O)[C@H](Cc1ccccc1)NC(=O)[C@@H](NC(=O)CNC(=O)[C@H](Cc1c[nH]cn1)NC(=O)C(C)(C)NC(=O)[C@@H](N)Cc1c[nH]cn1)[C@@H](C)O)[C@@H](C)O)C(=O)N[C@@H](CCC(=O)O)C(=O)N[C@@H](CO)C(=O)N[C@@H](CCCCN)C(=O)N[C@@H](CCCNC(=N)N)C(=O)N[C@@H](C)C(=O)N[C@@H](CCCNC(=N)N)C(=O)N[C@@H](CCC(=O)O)C(=O)N[C@@H](Cc1ccccc1)C(=O)N[C@H](C(=O)N[C@@H](CCC(N)=O)C(=O)N[C@@H](Cc1c[nH]c2ccccc12)C(=O)N[C@@H](CC(C)C)C(=O)N[C@@H](CC(C)C)C(=O)N[C@@H](CCCCNC(=O)CC[C@H](NC(=O)CC[C@H](NC(=O)CC[C@H](NC(=O)CCCCCCCCCCCCCCCCC(=O)O)C(=O)O)C(=O)O)C(=O)O)C(=O)N[C@H](C(N)=O)[C@@H](C)O)C(C)C [Example 34, N^ε28-[(4S)-4-carboxy-4-[[(4S)-4-carboxy-4-[[(4S)-4-carboxy-4-(17-carboxyheptadecanoylamino)butanoyl]amino]butanoyl]amino]butanoyl]-[Aib2,His3,Leu10,Glu15,Lys17,Arg20,Glu21,Leu27,Lys28]-Glucagon amide] (H-H[Aib]HGTFTSDLSKYLESKRAREFVQWLLK([γGlu-γGlu-γGlu-C18 diacid])T-NH2; N-terminus assumed) | 14.7
CC(C)C[C@H](NC(=O)[C@H](Cc1ccc(O)cc1)NC(=O)[C@H](CCCCN)NC(=O)[C@H](CO)NC(=O)[C@H](CC(C)C)NC(=O)[C@H](CC(=O)O)NC(=O)[C@H](CO)NC(=O)[C@@H](NC(=O)[C@H](Cc1ccccc1)NC(=O)[C@@H](NC(=O)CNC(=O)[C@H](Cc1c[nH]cn1)NC(=O)C1(NC(=O)[C@@H](N)Cc2c[nH]cn2)CCC1)[C@@H](C)O)[C@@H](C)O)C(=O)N[C@@H](CCC(=O)O)C(=O)N[C@@H](CO)C(=O)N[C@@H](CCCNC(=N)N)C(=O)N[C@@H](CCCNC(=N)N)C(=O)N[C@@H](C)C(=O)N[C@@H](CCC(N)=O)C(=O)N[C@@H](CC(=O)O)C(=O)N[C@@H](Cc1ccccc1)C(=O)N[C@H](C(=O)N[C@@H](CCC(N)=O)C(=O)N[C@@H](Cc1c[nH]c2ccccc12)C(=O)N[C@@H](CC(C)C)C(=O)N[C@@H](CC(C)C)C(=O)N[C@@H](CCCCNC(=O)CNC(=O)[C@H](CO)NC(=O)[C@H](CCC(=O)O)NC(=O)CNC(=O)[C@H](CO)NC(=O)CC[C@H](NC(=O)CC[C@H](NC(=O)CCCCCCCCCCCCCCCCC(=O)O)C(=O)O)C(=O)O)C(=O)N[C@H](C(N)=O)[C@@H](C)O)C(C)C [Example 35, N^ε28-[2-[[(2S)-2-[[(2S)-4-carboxy-2-[[2-[[(2S)-2-[[(4S)-4-carboxy-4-[[(4S)-4-carboxy-4-(17-carboxyheptadecanoylamino)butanoyl]amino]butanoyl]amino]-3-hydroxypropanoyl]amino]acetyl]amino]butanoyl]amino]-3-hydroxypropanoyl]amino]acetyl]-[Acb2,His3,Leu10,Glu15, Leu27,Lys28]-Glucagon amide] (I: H-H[Ac4c]HGTFTSDLSKYLESRRAQDFVQWLLKT-NH2 / II: {C18 diacid-γGlu-γGlu}-SGESG; amide I:28-II:C; N-terminus assumed) | 3
